Assay [1] concerns the target T1, proMMP9(20-445;ΔFnII) (SEQ ID NO:6) (Homo sapiens, UniProt P14780, DEL216-390).
T1 construct: start methionine (N); made in house; host or cells: E. coli BL21(DE3) RIL
T1 sequence (P14780 with tags, fused parts or gaps DEL216-390): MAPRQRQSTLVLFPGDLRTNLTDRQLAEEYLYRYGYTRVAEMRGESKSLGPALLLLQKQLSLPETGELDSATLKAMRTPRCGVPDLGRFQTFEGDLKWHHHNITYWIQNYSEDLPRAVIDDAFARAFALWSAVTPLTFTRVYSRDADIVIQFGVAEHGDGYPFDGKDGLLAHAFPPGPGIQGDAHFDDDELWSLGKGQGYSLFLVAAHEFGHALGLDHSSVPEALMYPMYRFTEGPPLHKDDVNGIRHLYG
As to the kind of experiment: ThermoFluor with proMMP9(20-445;ΔFnII). The conditions noted are these: read-out: proMMP9(20-445; ΔFnII) (SEQ ID NO: 6) binding. Put shortly:
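Thermal shift of 2.8 μM desalted proMMP9(20-445;ΔFnII) with 50 μM 1,8-ANS in 50 mM HEPES pH 7.0, NaCl, Tween-20, MgCl2, CaCl2; heated 40-90 °C at 1 °C/min, emission 500 nm. Tm from fitted curves; binding fit using DSC/ThermoFluor-derived unfolding parameters for 11-point compound dilutions.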
A general note: In DSF a fluorescence change marks the thermal transition of the protein.

Assay [2] concerns the target T2, proMMP9(67-444;ΔFnII) (SEQ ID NO:5) (Homo sapiens, UniProt P14780, DEL216-390).
T2 construct: start methionine (N); made in house; host or cells: E. coli BL21(DE3) RIL
T2 sequence (P14780 with tags, fused parts or gaps DEL216-390): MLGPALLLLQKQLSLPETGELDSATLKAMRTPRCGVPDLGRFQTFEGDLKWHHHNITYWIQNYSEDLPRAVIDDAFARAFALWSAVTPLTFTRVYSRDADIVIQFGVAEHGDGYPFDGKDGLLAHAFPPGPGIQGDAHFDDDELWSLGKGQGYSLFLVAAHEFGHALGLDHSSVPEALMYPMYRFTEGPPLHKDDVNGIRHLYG
Nature of the assay: ThermoFluor with proMMP9(67-444;ΔFnII). The settings on record: read-out: proMMP9(67-444; ΔFnII) (SEQ ID NO: 5) binding. Put shortly:
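Thermal shift with 3.5 μM protein and 50 μM 1,8-ANS in 50 mM HEPES pH 7.0, 100 mM NaCl, 0.001% Tween-20, 2.5 mM MgCl2, 300 μM CaCl2, heated 40–90 °C at 1 °C/min. Fluorescence (500±25 nm) fit to yield Tm; binding fitted using DSC/ThermoFluor-derived thermodynamic parameters, compounds dosed as serial dilutions.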

Assay [3] deals with T3, proMMP13(1-268) (SEQ ID NO:7) (Homo sapiens, UniProt P45452).
T3 construct: 6×-histidine tag (C); made in house; host or cells: HEK293 (transient transfection, secreted)
As to the kind of experiment: ProMMP13/Plasmin P126 Activation Assay. Format: biochemical. The settings on record: proMMP13(1-268) activated by plasmin. The protocol:
ProMMP13/Plasmin P126 Activation Assay
On the day of assay, proMMP13(1-268) (SEQ ID NO:7) purified from HEK293 cells and plasmin were diluted to 160 nM and 320 nM, respectively, in assay buffer. The reaction volume was 50 μL. […] The plate was sealed and incubated for 40 min at 37° C. […] Plasmin was not reactive towards P-126 substrate under these conditions.

Assay [4] addresses T4, full-length proMMP9(1-707) (SEQ ID NO:1) (Homo sapiens, UniProt P14780, R574P).
T4 construct: made in house; host or cells: HEK293 (proMMP9, secreted); E. coli (MMP3)
Nature of the assay: proMMP9/MMP3 P126 Activation Assay. Format: biochemical. The conditions noted are these: proMMP9(1-707) from HEK293 cells activated by catalytic MMP3. Here is the method: proMMP9/MMP3 P126 Activation Assay
The reaction volume was 50 μL. […] Reactivity of residual MMP3 towards P-126 substrate was minimal under these conditions.

SMILES strings stand for the structures. Counter-ions that a name gives are not always drawn.

T4 sequence (P14780 20-707 R574P): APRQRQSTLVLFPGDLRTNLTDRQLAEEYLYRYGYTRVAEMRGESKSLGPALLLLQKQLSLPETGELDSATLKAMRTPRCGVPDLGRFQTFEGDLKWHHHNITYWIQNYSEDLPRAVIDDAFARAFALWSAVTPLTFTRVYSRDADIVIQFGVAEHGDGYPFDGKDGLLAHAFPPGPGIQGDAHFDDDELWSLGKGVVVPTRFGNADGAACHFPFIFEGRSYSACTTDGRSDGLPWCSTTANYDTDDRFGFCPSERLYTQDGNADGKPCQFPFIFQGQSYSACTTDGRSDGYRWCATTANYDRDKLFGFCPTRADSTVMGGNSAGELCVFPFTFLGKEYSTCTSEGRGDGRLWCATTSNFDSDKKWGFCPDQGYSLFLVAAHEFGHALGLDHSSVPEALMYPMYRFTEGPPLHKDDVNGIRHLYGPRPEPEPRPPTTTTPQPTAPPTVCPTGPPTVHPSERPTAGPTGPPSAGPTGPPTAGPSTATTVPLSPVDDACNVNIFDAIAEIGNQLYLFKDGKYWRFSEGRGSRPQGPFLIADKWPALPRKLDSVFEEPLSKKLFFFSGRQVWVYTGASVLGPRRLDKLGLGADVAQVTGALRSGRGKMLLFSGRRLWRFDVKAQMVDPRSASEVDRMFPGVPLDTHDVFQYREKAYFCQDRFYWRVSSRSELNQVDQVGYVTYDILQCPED

Take `CC(C)Oc1ccc(S(N)(=O)=O)cc1Nc1nc(-c2ccc(OCCN3CCN(C4CC4)CC3)cc2)cs1` [Example 45, 3-((4-(4-(2-(4-cyclopropylpiperazin-1-yl)ethoxy)phenyl)thiazol-2-yl)amino)-4-isopropoxybenzenesulfonamide.TFA]: the Kd in assay [1] turned out to be 29 nM; in assay [2], 56 nM. The results for the half-maximal inhibitory concentration (IC50) in assay [3] and in assay [4] were 950 nM and 41 nM, respectively.
Taken in the same sequence, the figures for `CC(C)Oc1ccc(C(N)=O)cc1Nc1nc(-c2ccc(N3CCNCC3)cc2)cs1` [Example 7, 4-Isopropoxy-3-((4-(4-(piperazin-1-yl)phenyl)thiazol-2-yl)amino)benzamide.TFA] were 13 nM, 21 nM, 77 nM and 28 nM.
In the same order, the values of `CC(C)Oc1ccc(S(N)(=O)=O)cc1Nc1nc(-c2ccc(CN3CCN(C)CC3)cc2)cs1` [Example 49, 4-isopropoxy-3-((4-(4-((4-methylpiperazin-1-yl)methyl)phenyl)thiazol-2-yl)amino)benzenesulfonamide.TFA] are 26 nM, 40 nM, 3400 nM and 180 nM.
In the same order, the values of `CC(C)Oc1ccc(C(N)=O)cc1Nc1nc(-c2ccc(N3CCN(C(C)C)CC3)cc2)cs1` [Example 10, 4-Isopropoxy-3-((4-(4-(4-isopropylpiperazin-1-yl)phenyl)thiazol-2-yl)amino)benzamide.HCl] are 17 nM, 33 nM, 120 nM and 50 nM.
Regarding `CC(C)Oc1ccc(C(N)=O)cc1Nc1nc(-c2ccc(C3=CCN(C(C)C)CC3)cc2)cs1` [Example 19, 4-Isopropoxy-3-((4-(4-(1-isopropyl-1,2,3,6-tetrahydropyridin-4-yl)phenyl)thiazol-2-yl)amino)benzamide.TFA], the figures for the Kd in assay [1] and in assay [2] were 13 nM and 21 nM, respectively. In addition, the IC50 was 87 nM in assay [3] and 28 nM in assay [4].
Take `CC(C)Oc1ccc(S(N)(=O)=O)cc1Nc1nc(-c2ccc(CN3CCN(C(C)C)CC3)cc2)cs1` [Example 57, 4-isopropoxy-3-((4-(4-((4-isopropylpiperazin-1-yl)methyl)phenyl)thiazol-2-yl)amino)benzenesulfonamide.TFA]: the IC50 in assay [3] came to 4000 nM; in assay [4], 150 nM.
Turning to `CCN1CC=C(c2ccc(-c3csc(Nc4cc(C(N)=O)ccc4OC(C)C)n3)cc2)CC1` [Example 18, 3-((4-(4-(1-Ethyl-1,2,3,6-tetrahydropyridin-4-yl)phenyl)thiazol-2-yl)amino)-4-isopropoxybenzamide.TFA], the Kd in assay [1] came to 17 nM; in assay [2] it was 51 nM. Besides, the IC50 in assay [3] came out at 32 nM; in assay [4] it was 25 nM.
In the same order, the values of `CCOc1ccncc1Nc1nc(-c2ccc(C3=CCN(CC)CC3)cc2)cs1` [Example 22, N-(4-Ethoxypyridin-3-yl)-4-(4-(1-ethyl-1,2,3,6-tetrahydropyridin-4-yl)phenyl)thiazol-2-amine.TFA] are 340 nM, 36 nM, 1200 nM and 69 nM.
In the same order, the values of `CCOc1ccncc1Nc1nc(-c2ccc(C3=CCN(C(C)C)CC3)cc2)cs1` [Example 23, N-(4-Ethoxypyridin-3-yl)-4-(4-(1-isopropyl-1,2,3,6-tetrahydropyridin-4-yl)phenyl)thiazol-2-amine.TFA] are 510 nM, 35 nM, 850 nM and 60 nM.
Taken in the same sequence, the figures for `CC(C)Oc1ccc(S(N)(=O)=O)cc1Nc1nc(-c2ccc(N3CCN(C)CC3)cc2)cs1` [Example 3, 4-Isopropoxy-3-((4-(4-(4-methylpiperazin-1-yl)phenyl)thiazol-2-yl)amino)benzenesulfonamide.HCl] were 88 nM, 88 nM, 390 nM and 74 nM.
For the molecule `CC(C)Oc1ccc(C(N)=O)cc1Nc1nc(-c2ccc(OCCCN3CCOCC3)cc2)cs1` [Example 46, 4-isopropoxy-3-((4-(4-(3-morpholinopropoxy)phenyl)thiazol-2-yl)amino)benzamide.TFA], the Kd was found to be 20 nM in assay [1] and 99 nM in assay [2]. Besides, the half-inhibitory concentration (IC50) was determined as 340 nM in assay [3] and 62 nM in assay [4].
`CC(C)Oc1ccc(C(N)=O)cc1Nc1nc(-c2ccc(OCCN3CCN(C)CC3)cc2)cs1` [Example 42, 4-isopropoxy-3-((4-(4-(2-(4-methylpiperazin-1-yl)ethoxy)phenyl)thiazol-2-yl)amino)benzamide.TFA]: the Kd in assay [1] turned out to be 16 nM; in assay [2] it was 78 nM. Besides, the results for the IC50 in assay [3] and in assay [4] were 270 nM and 27 nM, respectively.
In the same order, the values of `CC(C)Oc1ccc(S(N)(=O)=O)cc1Nc1nc(-c2ccc(C3=CCN(C)CC3)cc2)cs1` [Example 13, 4-Isopropoxy-3-((4-(4-(1-methyl-1,2,3,6-tetrahydropyridin-4-yl)phenyl)thiazol-2-yl)amino)benzenesulfonamide.TFA] are 17 nM, 14 nM, 190 nM and 24 nM.
Turning to `CC(C)Oc1ccc(C(N)=O)cc1Nc1nc(-c2ccc(C3=CCN(C)CC3)cc2)cs1` [Example 17, 4-Isopropoxy-3-((4-(4-(1-methyl-1,2,3,6-tetrahydropyridin-4-yl)phenyl)thiazol-2-yl)amino)benzamide.TFA], the Kd in assay [1] was found to be 11 nM; in assay [2] it was 24 nM. Also, the IC50 in assay [3] is 91 nM; in assay [4], 26 nM.
With `CC(C)Oc1ccc(S(N)(=O)=O)cc1Nc1nc(-c2ccc(C3=CCNCC3)cc2)cs1` [Example 12, 4-Isopropoxy-3-((4-(4-(1,2,3,6-tetrahydropyridin-4-yl)phenyl)thiazol-2-yl)amino)benzenesulfonamide.TFA], the Kd in assay [1] was determined as 18 nM; in assay [2] it was 12 nM. For the same molecule, the IC50 in assay [3] amounted to 340 nM; in assay [4], 66 nM.
Taken in the same sequence, the figures for `CC(C)Oc1ccc(C(N)=O)cc1Nc1nc(-c2ccc(CN3CCN(C4CC4)CC3)cc2)cs1` [Example 50, 3-((4-(4-((4-cyclopropylpiperazin-1-yl)methyl)phenyl)thiazol-2-yl)amino)-4-isopropoxybenzamide.TFA] were 22 nM, 100 nM, 680 nM and 49 nM.
Consider `CCN1CCN(c2ccc(-c3csc(Nc4cc(S(N)(=O)=O)ccc4OC(C)C)n3)cc2)CC1` [Example 4, 3-((4-(4-(4-Ethylpiperazin-1-yl)phenyl)thiazol-2-yl)amino)-4-isopropoxybenzenesulfonamide.TFA], for which the values for the Kd in assay [1] and in assay [2] were 110 nM and 100 nM, respectively. The molecule further yielded an IC50 in assay [4] of 85 nM.
In the same order, the values of `CC(C)Oc1ccc(C(N)=O)cc1Nc1nc(-c2ccc(N3CCN(Cc4ccccc4)CC3)cc2)cs1` [Example 11, 3-((4-(4-(4-Benzylpiperazin-1-yl)phenyl)thiazol-2-yl)amino)-4-isopropoxybenzamide.TFA] are 380 nM, 870 nM and 740 nM.
Regarding `COc1ccc(F)cc1Nc1nc(-c2ccc(CN3CCN(C(C)C)CC3)cc2)cs1` [Example 63, N-(5-fluoro-2-methoxyphenyl)-4-(4-((4-isopropylpiperazin-1-yl)methyl)phenyl)thiazol-2-amine.TFA], the Kd in assay [1] was found to be 4600 nM; in assay [2], 960 nM. Further, it took 250 nM to reach half-maximal inhibition in assay [4] (IC50).
Taken in the same sequence, the figures for `CC(C)Oc1ccc(C(N)=O)cc1Nc1nc(-c2ccc(N3CCN(C)CC3)cc2)cs1` [Example 8, 4-Isopropoxy-3-((4-(4-(4-methylpiperazin-1-yl)phenyl)thiazol-2-yl)amino)benzamide.TFA] were 29 nM, 67 nM and 110 nM.

As usually defined, the IC50 is the midpoint of a concentration-inhibition curve.

The record behind these values is patent US20120302569A1, “PHENYL-THIAZOLYL INHIBITORS OF PRO-MATRIX METALLOPROTEINASE ACTIVATION” (priority 2011, published 2012).
